Values after ≈ are worked out from the molar mass of the structure shown.
Experiments:
Format in all cases: cell-based
[1] = tested on: organisms resistant to the parent compound; assay: activity against organisms resistant to the 1-N-unsubstituted parent compounds; conditions: organisms resistant to the 1-N-unsubstituted precursors
Source text: (§1) Particularly useful compounds of our invention are those wherein X is a lower alkyl having up to 8 carbon atoms, particularly those having up to 4 carbon atoms, e.g. compounds of formulae I, II, III, IV, and V wherein X is methyl, ethyl, n-propyl or n-butyl.

[2] = tested on: gram positive bacteria and gram negative bacteria; assay: antibacterial activity (standard dilution tests); conditions: versus parent antibiotic
Source text: as §1

[3] = tested on: Escherichia coli; assay: in vitro minimal inhibitory concentration, standard tube dilution method in Mueller-Hinton broth
Source text: In Table 1, set forth below is shown the in vitro minimal inhibitory concentration (MIC) of gentamicin C2a against representative gram-positive gram-negative bacteria. The results are derived using the standard tube dilution method in Mueller-Hinton broth.
In Table 2, set forth below is shown the in vitro minimal inhibitory concentration (MIC) of gentamicin C2b against representative gram-positive and gram-negative bacteria. The results are derived using the standard tube dilution method in Mueller-Hinton broth.

[4] = tested on: bacteria; assay: antibacterial activity and spectrum compared with the gentamicins

Row | SMILES | activity against resistant organisms [1] | further results
1 | CN[C@@H]1[C@@H](O)[C@@H](O[C@@H]2[C@@H](O)[C@H](O[C@H]3OC(C(C)N)=CC[C@H]3N)[C@@H](N)C[C@H]2NCCCCN)OC[C@]1(C)O (stereo partly shown) [1-N-(δ-aminobutyl) verdamicin, 1-N-(δ-aminobutyl)veradamicin] | exhibit activity against gram negative organisms which are resistant to their 1-N-unsubstituted precursors | –
2 | CN[C@@H]1[C@@H](O)[C@@H](O[C@@H]2[C@@H](O)[C@H](O[C@H]3OC(CN)=CC[C@H]3N)[C@@H](N)C[C@H]2NCCCCN)OC[C@]1(C)O [1-N-(δ-aminobutyl) sisomicin, 1-N-(δ-aminobutyl)sisomicin] | exhibit activity against gram negative organisms which are resistant to their 1-N-unsubstituted precursors | –
3 | CCN[C@@H]1C[C@H](N)[C@@H](O[C@H]2OC(CN)=CC[C@H]2N)[C@H](O)[C@H]1O[C@H]1OC[C@](C)(O)[C@H](NC)[C@H]1O [1-N-ethylsisomicin] | exhibit activity against gram negative organisms which are resistant to their 1-N-unsubstituted precursors | antibacterial activity compared to the parent antibiotics [2]: enhanced antibacterial activity
4 | CCCN[C@@H]1C[C@H](N)[C@@H](O[C@H]2OC(CN)=CC[C@H]2N)[C@H](O)[C@H]1O[C@H]1OC[C@](C)(O)[C@H](NC)[C@H]1O [1-N-(n-propyl) sisomicin, 1-N-(n-propyl)sisomicin] | exhibit activity against gram negative organisms which are resistant to their 1-N-unsubstituted precursors | –
5 | CCCN[C@@H]1C[C@H](N)[C@@H](O[C@H]2OC(C(C)N)=CC[C@H]2N)[C@H](O)[C@H]1O[C@H]1OC[C@](C)(O)[C@H](NC)[C@H]1O (stereo partly shown) [1-N-(n-propyl) verdamicin, 1-N-(n-propyl)verdamicin] | exhibit activity against gram negative organisms which are resistant to their 1-N-unsubstituted precursors | –
6 | CCN[C@@H]1C[C@H](N)[C@@H](O[C@H]2OC(C(C)N)=CC[C@H]2N)[C@H](O)[C@H]1O[C@H]1OC[C@](C)(O)[C@H](NC)[C@H]1O (stereo partly shown) [1-N-ethylverdamicin] | exhibit activity against gram negative organisms which are resistant to their 1-N-unsubstituted precursors | –
7 | CN[C@@H]1[C@@H](O)[C@@H](O[C@@H]2[C@@H](O)[C@H](O[C@H]3O[C@H]([C@H](C)N)CC[C@H]3N)[C@@H](N)C[C@H]2N)OC[C@]1(C)O [gentamicin C2a] | – | MIC [3]: 17.5 µg/mL (≈ 37.8 µM); activity relative to the gentamicin C complex ([4]; as the free base, of the activity of the gentamicin C complex): about 74%; antibacterial spectrum in vitro ([4]; compared with gentamicin C1, C1a and C2): substantially the same antibacterial spectrum in vitro as do gentamicin C1, C1a, and C2

— patent US4002742A, “1-N-alkyl-4,6-di-(aminoglycosyl)-1,3-diaminocyclitols, methods for their manufacture, methods for their use as antibacterial agents, and compositions useful therefor” (priority 1974, dated 1977)
